Results published in US20250051376A1, “BENZIMIDAZOLE DERIVATIVE COMPOUNDS AND USE THEREOF” (PHARMGEN SCIENCE, INC., priority 2021, published 2025).

What was measured:
gastric acid secretion [1] = experiment: Gastric acid releasing suppression ability test by oral administration (pylorus-ligated, histamine-stimulated rats); format: in vivo
Protocol: A week before the test, test animals (rats) were purchased and acclimatized. After acclimatization, food was removed the day before the test and fasting was performed for 24 hours using a fasting plate. The weight of each individual was measured, weight ranking was sequentially assigned to each group, and the average value of each group was randomly distributed so that the average value was evenly distributed. Test material (the embodiment compound and comparison compound) were used by dissolving them in 0.5% methylcellulose solution, and tegoprazan was used as a comparative compound. The prepared test material was orally administered to test animals at an amount of 3 mg/5 ml/kg, and 30 minutes later, inhalation anesthesia (3% isoflurane) was performed for 3 minutes using an inhalation anesthesia machine. After making a minimal incision in the upper abdomen about 1 cm below the left side of the sternum of an anesthetized test animal, the stomach was exposed, and the pyloric ring, which is the connection between the stomach and the duodenum, was ligated. The stomach and duodenum were restored to their original positions, and the laparotomy site was sutured well with surgical staplers. Histamine (7.5 mg/2.5 mL/head) was slowly administered subcutaneously to the back of the neck to promote gastric acid secretion. 3 hours after the surgery, the experimental animals were anesthetized with isoflurane and the stomach was removed through laparotomy. Gastric fluid obtained from the extracted stomach was transferred to a 15 ml conical tube, centrifuged at 5,000 rpm for 10 minutes, and only the supernatant was separated. 0.2 mL of the separated gastric fluid was diluted in 24.8 mL of distilled water to make a total dilution of 25 mL, and then 0.01N NaOH was added in small amounts to titrate until the pH reached 7. Efficacy was evaluated by calculating total acidity by combining the amount of gastric fluid and the amount of 0.01N NaOH required for titration.

physchem = details: pH 6.8, aqueous buffer, thermodynamic from solid
gastric acid secretion [2] = experiment: Gastric acid releasing suppression ability test by administration in the duodenum (pylorus-ligated, histamine-stimulated rats); format: in vivo; details: for gastric acid releasing suppression ability (% INH, Mean ± SD): intraduodenal 1 mg/5 ml/kg in 0.5% methylcellulose, pylorus ligation, histamine s.c., gastric fluid collected 3 hours after surgery
Protocol: A week before the test, test animals (rats) were purchased and acclimatized. After acclimatization, food was removed the day before the test and fasting was performed for 24 hours using a fasting plate. The weight of each individual was measured, weight ranking was sequentially assigned to each group, and the average value of each group was randomly distributed so that the average value was evenly distributed. Test material (the embodiment compound and comparison compound) were used by dissolving them in 0.5% methylcellulose solution, and tegoprazan was used as a comparative compound. Experimental animals were subjected to inhalation anesthesia (3% isoflurane) for 3 minutes using an inhalation anesthesia machine. After making a minimal incision in the upper abdomen about 1 cm below the left side of the sternum of an anesthetized test animal, the stomach was exposed, and the pyloric ring, which is the connection between the stomach and the duodenum, was ligated. The prepared drug was administered into the duodenum in an amount of 1 mg/5 ml/kg, the stomach and duodenum were restored to their original positions, and the laparotomy site was sutured well with a surgical stapler. Histamine (7.5 mg/2.5 mL/head) was slowly administered subcutaneously to the back of the neck to promote gastric acid secretion. 3 hours after the surgery, the experimental animals were anesthetized with isoflurane and the stomach was removed through laparotomy. Gastric fluid obtained from the extracted stomach was transferred to a 15 ml conical tube, centrifuged at 5,000 rpm for 10 minutes, and only the supernatant was separated. 0.2 mL of the separated gastric fluid was diluted in 24.8 mL of distilled water to make a total dilution of 25 mL, and then 0.01N NaOH was added in small amounts to titrate until the pH reached 7. Efficacy was evaluated by calculating total acidity by combining the amount of gastric fluid and the amount of 0.01N NaOH required for titration.

[3] = rats, oral 3 mg/5 ml/kg in 0.5% methylcellulose, pylorus ligation 30 min after dosing, histamine s.c., gastric fluid collected 3 hours after surgery

Row | Compound | gastric acid releasing suppression ability (% INH, Mean ± SD) (gastric acid secretion [1]; [3]) [% INH] | improved water solubility (pH 6.8) compared to the comparative compound [times] | solubility at 31 min (physchem) [µg/mL] | gastric acid releasing suppression ability (% INH, Mean ± SD) (gastric acid secretion [2]) [% INH] | gastric acid releasing suppression ability in the gastric acid secretion animal model (in words) (gastric acid secretion [1]; rats, oral 3 mg/5 ml/kg) | gastric acid releasing suppression ability (% INH, Mean ± SD) (gastric acid secretion [1]; rat, in vivo) [% INH] | gastric acid releasing suppression ability in the gastric acid secretion animal model (in words) (gastric acid secretion [1]; rat, in vivo, po) | ability to inhibit gastric acid secretion compared to the comparative compound (in words) (gastric acid secretion [2]; drug administered to the duodenum with a neutral pH, 1 mg/5 ml/kg)
1 | Cc1nc2c(O[C@H]3CCOc4cc(F)cc(F)c43)cc(C(=O)N(C)C)cc2n1COP(=O)(OC(C)(C)C)OC(C)(C)C [Embodiment 2, (S)-di-tert-butyl ((4-((5,7-difluorochroman-4-yl)oxy)-6-(dimethylcarbamoyl)-2-methyl-1H-benzo[d]imidazol-1-yl)methyl) phosphate] | 26.8 ± 9.2 | 256 | 5120 | – | – | – | – | –
2 | Cc1nc2cc(C(=O)N(C)C)cc(O[C@H]3CCOc4cc(F)cc(F)c43)c2[nH]1 [Comparison compound, tegoprazan, reference compound] | 100 ± 0.0 | – | – | 29.8 ± 9.1 | – | – | – | –
3 | Cc1nc2c(O[C@H]3CCOc4cc(F)cc(F)c43)cc(C(=O)N(C)C)cc2n1COP(=O)(O)O [Embodiment 4, (S)-(4-((5,7-difluorochroman-4-yl)oxy)-6-(dimethylcarbamoyl)-2-methyl-1H-benzo[d]imidazol-1-yl)methyl dihydrogen phosphate] | 100.0 ± 0.0 | 128 | 2560 | – | powerful gastric acid releasing suppression ability | – | – | –
4 | Cc1nc2c(O[C@H]3CCOc4cc(F)cc(F)c43)cc(C(=O)N(C)C)cc2n1COP(=O)(O)OC(C)(C)C [Embodiment 3, tert-butyl ((4-(((S)-5,7-difluorochroman-4-yl)oxy)-6-(dimethylcarbamoyl)-2-methyl-1H-benzo (d)imidazol-1-yl)methyl) hydrogen phosphate] | 23.9 ± 3.3 | 128 | 2560 | – | – | – | – | –
5 | sodium(S)-tert-butyl ((4-((5,7-difluorochroman-4-yl)oxy)-6-(dimethylcarbamoyl)-2-methyl-1H-benzo (d) imidazol-1-yl)methyl) phosphate) [Embodiment 5] | – | – | – | – | – | 12.7 ± 10.9 | – | –
6 | sodium(S)-(4-((5,7-difluorochroman-4-yl)oxy)-6-(dimethylcarbamoyl)-2-methyl-1H-benzo (d) imidazol-1-yl)methyl phosphate) [Embodiment 6] | – | – | – | 43.7 ± 8.7 | – | 92.8 ± 4.8 | powerful gastric acid releasing suppression ability | improved ability to inhibit gastric acid secretion compared to the comparative compound
